Key:
RL target cells = test: Co-culture of tumor cells and CAR T cells, venetoclax added at initiation or 24, 48 or 72 hours later (Example 9): tumor cell killing; format: cell-based, human
Description: FIGS. 14A and 14B show the number of CD3+CAR+ T cells and RL target cells, respectively, following a 6-day co-culture. Various concentrations of an exemplary BCL2 inhibitor were provided in the co-culture at its initiation, or 24, 48, or 72 hours after the initiation of co-culture.
Thus, in some cases, the cytotoic effects of a BCL2 inhibitor, e.g. venetoclax, and a T cell therapy (e.g. CAR T cells) may be synergistic to result in cell death of cells otherwise resistant to treatment with the T cell therapy alone. In some cases, administration of the inhibitor, e.g. venetoclax, may sensitize otherwise resistant cancer cells to CAR T cell-mediated killing when it is administered within or at about 7 days after administration of the cell therapy.

anti-CD19 CAR T cells [1] = test: Effect of serum concentration on venetoclax IC50 against CAR T cells; format: cell-based; details: 5%, 10% or 20% serum
Description: Thus, to determine whether serum concentration may modulate the effects of venetoclax on CAR T cells, anti-CD19 CAR T cells were cultured in the presence of 5%, 10%, or 20% serum and treated with increasing concentrations of venetoclax.

anti-CD19 CAR T cells [2] = test: CAR T cell viability, ATP luciferin reporter assay after 96 hours anti-idiotypic antibody stimulation; format: cell-based, human
Description: Anti-CD19 CAR-expressing T cell compositions were generated from three human adult donors, substantially as described in Example 1. Anti-CD19 CAR T cells were stimulated for 96 hours with an anti-idiotypic antibody in the presence of an exemplary BCL2 inhibitor venetoclax solubilized in dimethylsulfoxide (DMSO). Control anti-CD19 CAR T cells were stimulated for 96 hours with the anti-idiopathic antibody in the presence of an equal amount of DMSO. Specifically, anti-CD19 CAR-expressing cells were added to the wells of a 96-well plate that had been pre-coated with an anti-idiotypic antibody specific to the scFv of the anti-CD19 CAR-expressing T cells described in Example 1 at a concentration of 30 μg/ml. The cells were cultured in the presence of 5% human serum at 37° C. and 5% CO2. After 96 hours, cells were lysed and ATP from viable cells was detected via a luciferin reporter assay and reported as relative luminescence units. Venetoclax-treated CAR T cell counts were assessed and normalized to DMSO control CAR T cell counts.

[3] = tested on: JeKo-1 mantle cell lymphoma cells; test: JeKo-1 murine model of mantle cell lymphoma; format: in vivo, NOD scid gamma (NSG) mice
Description: NOD scid gamma (NSG) mice were injected intravenously with 2×10^6 JeKo-1 mantle cell lymphoma cells (Day −7) and treated daily with 12.5, 25, 50, or 100 mg/kg of the exemplary BCL2 inhibitor venetoclax for 21 days (Day 0 through Day 21). Tumor burden (FIG. 11A) and body weight (FIG. 11B) were assessed over the course of treatment.
To determine the effects of venetoclax on anti-CD19 CAR T cells in a venetoclax-resistant murine model of MCL, NSG mice were injected intravenously with 2×10^6 JeKo-1 cells on Day −7, and then treated with intravenous infusions of 1×10^6 anti-CD19 CAR T cells, generated substantially as described in previous Example, on Day −1 and Day 0. Venetoclax was administered daily for 21 days (Day 0 to Day 21) at 6.25, 25, or 100 mg/kg. As a control, a subset of mice were only treated with venetoclax. Tumor burden (FIG. 12A), survival (FIGS. 12B and 12C), and CAR T cell number (FIG. 13) were assessed.

RL cells = test: RL target cell co-culture with CAR T cells and venetoclax (NLR microscopy); format: cell-based; details: with CAR T cells E:T 1:1, 0.1 venetoclax
Description: Anti-CD19 CAR-expressing T cell compositions, generated as described in Example 1, were cultured with the CD19-expressing lymphoma target cell line RL. Target cells were engineered with a lentiviral reagent to express NucLight Red (NLR) to permit tracking of the cells by microscopy. […] The anti-CD19 CART cells were co-cultured with target RL cells at an E:T ratio of 1:1, and the co-cultures were carried out in the presence of 0.1 μM of the exemplary BCL2 inhibitor venetoclax. For comparison, target cells were incubated only in the presence of the CAR T cells or 0.1 μM of the inhibitor.

[4] = tested on: cancer cells resistant to CAR T cell-mediated killing; test: T cell-mediated killing of cancer cells by CAR T cells in presence of BCL2 inhibitor; format: cell-based; details: cancers resistant to T cell therapy alone, low doses without activity on tumor alone
[5] = tested on: cells of the cell therapy (CAR-T cells); test: Activation induced cell death of cells of the cell therapy in presence of inhibitor; format: cell-based; details: particularly if given at too high of a dosage
Source text: In some aspects, the provided methods, combinations and uses provide for or achieve improved or more durable responses or efficacy as compared to alternative methods, such as alternative methods involving only the administration of the immunotherapy or cell therapy but not in combination with an inhibitor of a prosurvival BCL2 family protein (e.g. venetoclax). In some embodiments, the methods are advantageous by virtue of administering an inhibitor of a prosurvival BCL2 family protein (e.g. venetoclax) shortly before (e.g. within 7 days) or concurrently with administration of an immunotherapy or a cell therapy (e.g. T cell therapy, such as CAR-T cell), thereby sensitizing the tumor and/or making the tumor less resistant to, or more susceptible to, treatment with the immunotherapy or cell therapy. […] However, delaying administration of the inhibitor of a prosurvival BCL2 family protein (e.g. venetoclax) until a time after AICD is at or has reached it peak or been reduced after having peaked can avoid detrimental effects on the cells of the cell therapy while substantially improving, e.g. synergistically increasing, T cell-mediated killing of the tumor by cells of the cell therapy (e.g. CAR-T cells).

## CC1(C)CCC(CN2CCN(c3ccc(C(=O)NS(=O)(=O)c4ccc(NCC5CCOCC5)c([N+](=O)[O-])c4)c(Oc4cnc5[nH]ccc5c4)c3)CC2)=C(c2ccc(Cl)cc2)C1 [venetoclax]
RL target cells; inhibitor administered when activation-induced cell death of CAR T cells has peaked (e.g. 2-7 days after CAR T cells), Example 9
  antitumor effects of CAR T cells: potent antitumor effects
RL target cells; therapeutic dose administered 48 or 72 hours after initiation of co-culture of tumor cells and CAR T cells
  sensitization of tumor cells to CAR T cell-mediated killing: able to sensitize the tumor cells to CAR T cell-mediated killing
anti-CD19 CAR T cells [1]
  IC50 against anti-CD19 CAR T cells: increase with increasing concentrations of serum
anti-CD19 CAR T cells [2]; T-cell, average among three donors, 5% human serum
  IC50: 7.9 µM
anti-CD19 CAR T cells [2]; increasing doses
  percentage of viable anti-CD19 CAR-expressing T cells: decreased with increasing doses of venetoclax
[3]; venetoclax 6.25, 25 or 100 mg/kg daily in combination with CAR T cells, vs untreated and venetoclax-only mice
  tumor volume: reduced tumor volume at all measured time points
[3]; venetoclax alone, 6.25, 25 or 100 mg/kg daily for 21 days
  tumor burden: increased similarly in untreated mice and mice treated with venetoclax alone
[3]; venetoclax alone, 12.5, 25, 50 or 100 mg/kg daily for 21 days
  tumor burden (bioluminescence imaging): resistant to treatment with venetoclax alone, regardless of dose level
RL cells
  target cell killing: sensitized to the CD19-directed CAR T cell killing
[4]
  T cell-mediated killing of cancer cells by a T cell therapy (CAR T cells): improves T cell-mediated killing of cancer cells
[5]
  activation induced cell death (AICD) of cells of the cell therapy: can exacerbate activation induced cell death (AICD)

From US20220249637A1, “COMBINATION THERAPY OF A CELL-MEDIATED CYTOTOXIC THERAPY AND AN INHIBITOR OF A PROSURVIVAL BCL2 FAMILY PROTEIN” (Juno Therapeutics, Inc., priority 2019, published 2022)
